Laboratory results taken from patent US20130023553A1, “PEGYLATED OPIOIDS WITH LOW POTENTIAL FOR ABUSE AND SIDE EFFECTS” (Nektar Therapeutics, priority 2010, published 2013).
Like-named read-outs stand apart in the source and are kept apart here.

Key:
[1] = Pharmacokinetics following intravenous (IV) dosing; assay type: in vivo, Sprague-Dawley rats; parameters: Cmax: unit: ng/mL; conditions: for Vd: read-out: Vss
Source text: (§1) There were 3 rats/group. All animals were food fasted overnight. […] The predose sample was collected from the JVC.
(§2) Following the last collection point, the animals were euthanized.

[2] = biological target: T1, human mu opioid receptor (Homo sapiens, UniProt P35372); assay: cell-based; conditions: for Emax: read-out: % max effect, mu opioid receptor
T1 construct: expressed in transfected cells; host or cells: CHO cells
Description: Studies were conducted in CHO cells heterologously expressing the cloned human mu, kappa or delta opioid receptors. cAMP was measured using a cAMP HiRange homogenous time-resolved fluorescence assay (HTRF Assay), that is based on a competitive immunoassay principle (Cisbio, Cat.#62AM6PEC).
Briefly, suspensions of cells expressing either the mu, kappa or delta opioid receptors were prepared in buffer containing 0.5 mM isobutyl-methyl xanthine (IBMX). […] EC50 values were calculated for each compound from a sigmoidal dose-response plot of concentrations versus maximum response. To determine if the compounds behaved as full or partial agonists in the system, the maximal response at the highest tested concentrations of compounds were compared to that produced by a known full agonist.

[3] = Pharmacokinetics following oral (PO) dosing; assay type: in vivo, Sprague-Dawley rats; parameters: Cmax: unit: ng/mL
Source text: as §1, §2

[4] = biological target: T1, human mu opioid receptor; assay: biochemical; assay type: binding
Description: Radioligand displacement was measured using scintillation proximity assays (SPA).
Briefly, serial dilutions of the test compounds were placed in a 96-well plate to which were added SPA beads, membrane and radioligand. The assay conditions for each opioid receptor subtype are described in Table 10 below. The plates were incubated for 8 hours-overnight at room temperature, spun at 1000 rpm to pellet the SPA beads, and radioactivity was measured using the TopCount® microplate Scintillation counter. Specific binding at each concentration of test compound was calculated by subtracting the non-specific binding measured in the presence of excess cold ligand. IC50 values were obtained by non-linear regression of specific binding versus concentration curves and Ki values were calculated using Kd values that were experimentally pre-determined for each lot of membrane preparations.

[5] = male, Sprague-Dawley, rat, plasma, hydroxycodone series, 1 mg/kg IV, Mean ± SD
[6] = male, Sprague-Dawley, rat, plasma, hydroxycodone series, 1 mg/kg IV, Mean ± SD, read-out: Cmax
[7] = male, Sprague-Dawley, rat, plasma, hydroxycodone series, 1 mg/kg IV, Mean ± SD, read-out: T1/2(z)
[8] = maximal response at the highest tested concentration
[9] = male, Sprague-Dawley, rat, plasma, po, 5 mg/kg
[10] = male, Sprague-Dawley, rat, plasma, hydroxycodone series, 5.0 mg/kg oral, Mean ± SD
[11] = CHO-K1 membranes, [3H]DAMGO 6 nM, read-out: Ki, Mu opioid receptor
[12] = read-out: EC50, mu opioid receptor
[13] = male, Sprague-Dawley, rat, plasma, iv, 1 mg/kg
[14] = male, Sprague-Dawley, rat, plasma, iv, 1 mg/kg, read-out: Cmax
[15] = male, Sprague-Dawley, rat, plasma, iv, 1 mg/kg, read-out: T1/2(2)
[16] = male, Sprague-Dawley, rat, plasma, po, 5 mg/kg, read-out: Cmax
[17] = male, Sprague-Dawley, rat, plasma, po, 5 mg/kg, read-out: T1/2(2)
[18] = male, Sprague-Dawley, rat, plasma, po, 5 mg/kg, read-out: Tmax (converted)
[19] = codeine series, 5 mg/kg oral, Mean ± SD

T1 sequence (P35372 whole entry): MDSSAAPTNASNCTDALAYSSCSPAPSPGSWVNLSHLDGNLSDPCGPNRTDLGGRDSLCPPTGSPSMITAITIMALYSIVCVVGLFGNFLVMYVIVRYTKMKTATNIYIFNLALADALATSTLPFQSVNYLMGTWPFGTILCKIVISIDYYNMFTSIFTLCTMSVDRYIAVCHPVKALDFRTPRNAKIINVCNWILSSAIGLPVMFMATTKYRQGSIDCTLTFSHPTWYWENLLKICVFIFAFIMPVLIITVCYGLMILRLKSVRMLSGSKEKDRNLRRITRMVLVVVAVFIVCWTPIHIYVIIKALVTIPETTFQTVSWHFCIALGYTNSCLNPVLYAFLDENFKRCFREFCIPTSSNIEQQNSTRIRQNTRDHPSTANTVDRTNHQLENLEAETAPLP

Compound: COCCOCCOCCOCCOCCOCCOCCOCCOCCOC1CCC2(O)C3Cc4ccc(OC)c5c4C2(CCN3C)C1O5 (stereo not drawn) [α-6-mPEG9-O-hydroxycodone, α-6-mPEG9-O-oxycodone]
- mean t1/2 value, times that of the parent compound ([1]; 1 mg/kg IV): 3 times
- AUC [1, 5]: 277 ng·h/mL
- AUC(0-inf) [1, 5]: 350 ng·h/mL
- MRT last [1, 5]: 52.7 min
- clearance [1, 5]: 48.9 ± 9.41 mL/min/kg
- Cmax [1, 6]: 955 ± 149 ng/mL
- half-life [1, 7]: 143 ± 14.3 min
- Vd [1, 5]: 6.35 ± 0.349 L/kg
- Emax [2, 8]: 95%

Compound: COCCOCCOC1CCC2(O)C3Cc4ccc(OC)c5c4C2(CCN3C)C1O5 (stereo not drawn) [α-6-mPEG2-O-hydroxycodone, α-6-mPEG2-O-oxycodone]
- AUC [1, 5]: 200 ng·h/mL
- AUC(0-inf) [1, 5]: 203 ng·h/mL
- MRT last [1, 5]: 37 min
- clearance [1, 5]: 83.3 ± 10.8 mL/min/kg
- Cmax [1, 6]: 513 ± 48.8 ng/mL
- half-life [1, 7]: 44.6 ± 1.8 min
- Vd [1, 5]: 3.36 ± 0.298 L/kg
- bioavailability [3, 9]: 9.4%
- AUC [3, 10]: 98.5 ng·h/mL
- MRT last [3, 10]: 0.923 h
- AUC(0-inf) ([3]; male, Sprague-Dawley, rat, plasma, hydroxycodone series, 5.0 mg/kg oral, Mean ± SD, * n = 2): 97.2 ng·h/mL
- half-life ([3]; male, Sprague-Dawley, rat, plasma, hydroxycodone series, 5.0 mg/kg oral, Mean ± SD, * n = 2, read-out: T1/2(z)): 48.5 ± 12 min
- Cmax ([3]; male, Sprague-Dawley, rat, plasma, hydroxycodone series, 5.0 mg/kg oral, Mean ± SD, read-out: Cmax): 99.4 ± 47.3 ng/mL
- Tmax ([3]; male, Sprague-Dawley, rat, plasma, hydroxycodone series, 5.0 mg/kg oral, median value, read-out: Tmax (converted)): 15 min
- Ki [4, 11]: 632 nM
- Emax [2, 8]: 101%
- EC50 [2, 12]: 5010 nM

Compound: COc1ccc2c3c1OC1C(O)CCC4(O)C(C2)N(C)CCC314 (stereo not drawn) [Hydroxycodone, α-6-hydroxycodone, reference compound]
- EC50 [2, 12]: 3160 nM

Compound: COCCOCCOCCOCCOCCOCCOC1C=CC2C3Cc4ccc(O)c5c4C2(CCN3C)C1O5 (stereo not drawn) [α-6-mPEG6-O-morphine]
- Ki [4]: 73 nM
- EC50 [2]: 415 nM
- Emax [2]: 98%

Compound: COCCOC1C=CC2C3Cc4ccc(O)c5c4C2(CCN3C)C1O5 (stereo not drawn) [α-6-mPEG1-O-morphine]
- Ki [4]: 15.7 nM
- EC50 [2]: 85 nM
- Emax [2]: 91%

Compound: COCCOCCOCCOCCOC1C=CC2C3Cc4ccc(O)c5c4C2(CCN3C)C1O5 (stereo not drawn) [α-6-mPEG4-O-morphine]
- Ki [4]: 23.1 nM
- EC50 [2]: 128 nM
- Emax [2]: 100%

Compound: COCCOCCOCCOCCOCCOCCOCCOCCOCCOC1C=CC2C3Cc4ccc(OC)c5c4C2(CCN3C)C1O5 (stereo not drawn) [α-6-mPEG9-O-codeine]
- AUC [1, 13]: 297 ng·h/mL
- AUC(0-inf) [1, 13]: 347 ng·h/mL
- MRT last [1, 13]: 57.2 min
- clearance [1, 13]: 48.6 ± 6.74 mL/min/kg
- Cmax [1, 14]: 730 ± 68 ng/mL
- half-life [1, 15]: 109 ± 1.8 min
- Vd [1, 13]: 5.18 ± 0.538 L/kg
- AUC [3, 9]: 122 ng·h/mL
- AUC(0-inf) [3, 9]: 114 ng·h/mL
- MRT last [3, 9]: 2.98 h
- bioavailability [3, 9]: 8.22%
- Cmax [3, 16]: 31.5 ± 8.43 ng/mL
- half-life [3, 17]: 143 min
- Tmax [3, 18]: 15 min
- Ki [4, 11]: 9980 nM
- Emax [2, 8]: 80%
- EC50 [2, 12]: 48200 nM

Compound: COCCOCCOC1C=CC2C3Cc4ccc(O)c5c4C2(CCN3C)C1O5 (stereo not drawn) [α-6-mPEG2-O-morphine]
- Ki [4]: 22 nM
- EC50 [2]: 93.3 nM
- Emax [2]: 91%

Compound: COCCOCCOCCOCCOCCOC1CCC2(O)C3Cc4ccc(OC)c5c4C2(CCN3C)C1O5 (stereo not drawn) [α-6-mPEG5-O-hydroxycodone, α-6-mPEG5-O-oxycodone]
- AUC [1, 5]: 282 ng·h/mL
- AUC(0-inf) [1, 5]: 295 ng·h/mL
- MRT last [1, 5]: 46.2 min
- clearance [1, 5]: 57 ± 6.07 mL/min/kg
- Cmax [1, 6]: 622 ± 39.7 ng/mL
- half-life [1, 7]: 62.1 ± 3.85 min
- Vd [1, 5]: 3.3 ± 0.184 L/kg
- Ki [4, 11]: 1860 nM
- Emax [2, 8]: 108%
- EC50 [2, 12]: 5040 nM

Compound: COCCOCCOCCOC1C=CC2C3Cc4ccc(OC)c5c4C2(CCN3C)C1O5 (stereo not drawn) [α-6-mPEG3-O-codeine]
- AUC [1, 13]: 288 ng·h/mL
- AUC(0-inf) [1, 13]: 290 ng·h/mL
- MRT last [1, 13]: 33.8 min
- clearance [1, 13]: 57.7 ± 4.89 mL/min/kg
- Cmax [1, 14]: 732 ± 27.1 ng/mL
- half-life [1, 15]: 39.4 ± 1.49 min
- Vd [1, 13]: 2.07 ± 0.127 L/kg
- AUC [3, 9]: 32 ng·h/mL
- AUC(0-inf) [3, 9]: 34.7 ng·h/mL
- MRT last [3, 9]: 1.18 h
- bioavailability [3, 9]: 2.39%
- Cmax [3, 16]: 25 ± 6.59 ng/mL
- half-life [3, 17]: 125 ± 64.6 min
- Tmax [3, 18]: 15 min
- Ki [4, 11]: 4260 nM
- Emax [2, 8]: 91%

Compound: COCCOCCOCCOCCOCCOCCOCCOC1C=CC2C3Cc4ccc(OC)c5c4C2(CCN3C)C1O5 (stereo not drawn) [α-6-mPEG7-O-codeine]
- AUC [1, 13]: 212 ng·h/mL
- AUC(0-inf) [1, 13]: 228 ng·h/mL
- MRT last [1, 13]: 50.7 min
- clearance [1, 13]: 73.1 ± 1.73 mL/min/kg
- Cmax [1, 14]: 443 ± 43.3 ng/mL
- half-life [1, 15]: 74.5 ± 5.76 min
- Vd [1, 13]: 5.2 ± 0.596 L/kg
- AUC [3, 9]: 285 ng·h/mL
- AUC(0-inf) [3, 9]: 267 ng·h/mL
- MRT last [3, 9]: 2.85 h
- bioavailability [3, 9]: 26.9%
- Cmax [3, 16]: 76.6 ± 12.8 ng/mL
- half-life [3, 17]: 97.6 min
- Tmax [3, 18]: 120 min
- Ki [4, 11]: 9960 nM
- Emax [2, 8]: 75%
- EC50 [2, 12]: 44700 nM

Compound: COCCOCCOCCOCCOCCOCCOCCOCCOCCOC1C=CC2C3Cc4ccc(O)c5c4C2(CCN3C)C1O5 (stereo not drawn) [α-6-mPEG9-O-Morphine, α-6-mPEG-O9-morphine]
- Ki [4, 11]: 111 nM
- Emax [2, 8]: 87%
- EC50 [2, 12]: 1060 nM

Compound: COCCOCCOCCOCCOCCOC1C=CC2C3Cc4ccc(O)c5c4C2(CCN3C)C1O5 (stereo not drawn) [α-6-mPEG5-O-morphine]
- Ki [4]: 39.4 nM
- EC50 [2]: 157 nM
- Emax [2]: 95%

Compound: COCCOCCOCCOCCOCCOCCOCCOC1C=CC2C3Cc4ccc(O)c5c4C2(CCN3C)C1O5 (stereo not drawn) [α-6-mPEG7-O-morphine]
- Ki [4]: 56.9 nM
- EC50 [2]: 508 nM
- Emax [2]: 90%

Compound: COc1ccc2c3c1O[C@H]1[C@@H](O)C=C[C@H]4[C@@H](C2)N(C)CC[C@@]341 [Codeine, codeine, reference compound]
- AUCall ([1]; codeine series, 1 mg/kg IV): 11000 ± 1600 ng·min/mL
- AUCinf ([1]; codeine series, 1 mg/kg IV): 11400 ± 2070 ng·min/mL
- CL ([1]; codeine series, 1 mg/kg IV): 89.7 ± 15.3 mL/min/kg
- Cmax ([1]; codeine series, 1 mg/kg IV): 469 ± 20.4 ng/mL
- MRTlast ([1]; codeine series, 1 mg/kg IV): 40.2 ± 9.08 min
- Vss ([1]; codeine series, 1 mg/kg IV): 4.14 ± 0.700 L/kg
- AUCall [3, 19]: 328 ± 216 ng·min/mL
- Cmax [3, 19]: 6.24 ± 2.51 ng/mL
- MRTlast [3, 19]: 33.2 ± 12.9 min
- AUCinf ([3]; codeine series, 5 mg/kg oral, Mean ± SD, # n = 1, * n = 2): 431^# min · ng/mL
- Tmax ([3]; codeine series, 5 mg/kg oral, median value): 15.0 min
- F % ([3]; codeine series, oral bioavailability, 5 mg/kg oral vs 1 mg/kg IV): 0.60%
